Assay results taken from ChEMBL document CHEMBL1201862, “PubChem BioAssay data set” (2004).
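48-hour exposure; five concentrations; linearly interpolated endpoints. At the GI50, growth is halved.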 Activity calls are given as the source filed them. Cut-off read from the data, not from the text of the source: active = GI50 up to about 1.1 µM and inactive = higher.

Assays:
Test in all cases: DTP human tumour cell line panel, 48 h
786-0 = test system: 786-0
A498 = test system: A498
A549 = test system: A549
ACHN = test system: ACHN
BT-549 = test system: BT-549
CAKI-1 = test system: CAKI-1
CCRF-CEM = test system: CCRF-CEM
COLO 205 = test system: COLO 205
DU-145 = test system: DU-145
EKVX = test system: EKVX
HCT-116 = test system: HCT-116
HCT-15 = test system: HCT-15
HL-60 = test system: HL-60
HOP-62 = test system: HOP-62
HT-29 = test system: HT-29
Hs-578T = test system: Hs-578T
IGROV-1 = test system: IGROV-1
K562 = test system: K562
KM12 = test system: KM12
LOX IMVI = test system: LOX IMVI
M14 = test system: M14
MCF7 = test system: MCF7
MDA-MB-231 = test system: MDA-MB-231
MDA-MB-435 = test system: MDA-MB-435
MDA-N = test system: MDA-N
MOLT-4 = test system: MOLT-4
Malme-3M = test system: Malme-3M
NCI-H226 = test system: NCI-H226
NCI-H23 = test system: NCI-H23
NCI-H460 = test system: NCI-H460
NCI-H522 = test system: NCI-H522
NCI/ADR-RES = test system: NCI/ADR-RES
OVCAR-3 = test system: OVCAR-3
OVCAR-4 = test system: OVCAR-4
OVCAR-5 = test system: OVCAR-5
OVCAR-8 = test system: OVCAR-8
PC-3 = test system: PC-3
RPMI-8226 = test system: RPMI-8226
RXF 393 = test system: RXF 393
SF-268 = test system: SF-268
SF-295 = test system: SF-295
SF-539 = test system: SF-539
SK-MEL-28 = test system: SK-MEL-28
SK-MEL-2 = test system: SK-MEL-2
SK-MEL-5 = test system: SK-MEL-5
SK-OV-3 = test system: SK-OV-3
SN12C = test system: SN12C
SNB-19 = test system: SNB-19
SNB-75 = test system: SNB-75
SR = test system: SR
SW-620 = test system: SW-620
T47D = test system: T47D
TK-10 = test system: TK-10
U-251 = test system: U-251
UACC-257 = test system: UACC-257
UACC-62 = test system: UACC-62
UO-31 = test system: UO-31
HCC 2998 = test system: HCC 2998
HOP-92 = test system: HOP-92

Cn1c(=O)c2nc(CS(=O)(=O)Cc3nc4c(=O)n(C)c(=O)n(C)c4[nH]3)[nH]c2n(C)c1=O
GI50 (786-0): > 100 µM (inactive) | GI50 (A498): > 100 µM (inactive) | GI50 (A549): > 100 µM (inactive) | GI50 (ACHN): > 100 µM (inactive) | GI50 (BT-549): > 100 µM (inactive) | GI50 (CAKI-1): > 100 µM (inactive) | GI50 (CCRF-CEM): > 100 µM (inactive) | GI50 (COLO 205): > 100 µM (inactive) | GI50 (DU-145): > 100 µM (inactive) | GI50 (EKVX): > 100 µM (inactive) | GI50 (HCT-116): > 100 µM (inactive) | GI50 (HCT-15): > 100 µM | GI50 (HL-60): > 100 µM (inactive) | GI50 (HOP-62): > 100 µM (inactive) | GI50 (HT-29): > 100 µM (inactive) | GI50 (Hs-578T): > 100 µM (inactive) | GI50 (IGROV-1): > 100 µM (inactive) | GI50 (K562): > 100 µM (inactive) | GI50 (KM12): > 100 µM (inactive) | GI50 (LOX IMVI): > 100 µM (inactive) | GI50 (M14): > 100 µM (inactive) | GI50 (MCF7): 28.1 µM (inactive) | GI50 (MDA-MB-231): 40.6 µM (inactive) | GI50 (MDA-MB-435): > 100 µM (inactive) | GI50 (MDA-N): > 100 µM (inactive) | GI50 (MOLT-4): > 100 µM (inactive) | GI50 (Malme-3M): > 100 µM (inactive) | GI50 (NCI-H226): > 100 µM (inactive) | GI50 (NCI-H23): > 100 µM (inactive) | GI50 (NCI-H460): > 100 µM (inactive) | GI50 (NCI-H522): > 100 µM (inactive) | GI50 (NCI/ADR-RES): > 100 µM (inactive) | GI50 (OVCAR-3): > 100 µM (inactive) | GI50 (OVCAR-4): 43.1 µM (inactive) | GI50 (OVCAR-5): > 100 µM (inactive) | GI50 (OVCAR-8): > 100 µM (inactive) | GI50 (PC-3): > 100 µM (inactive) | GI50 (RPMI-8226): > 100 µM (inactive) | GI50 (RXF 393): > 100 µM (inactive) | GI50 (SF-268): > 100 µM (inactive) | GI50 (SF-295): > 100 µM (inactive) | GI50 (SF-539): > 100 µM (inactive) | GI50 (SK-MEL-28): > 100 µM (inactive) | GI50 (SK-MEL-2): > 100 µM (inactive) | GI50 (SK-MEL-5): > 100 µM (inactive) | GI50 (SK-OV-3): > 100 µM (inactive) | GI50 (SN12C): > 100 µM (inactive) | GI50 (SNB-19): > 100 µM (inactive) | GI50 (SNB-75): > 100 µM (inactive) | GI50 (SR): > 100 µM (inactive) | GI50 (SW-620): > 100 µM (inactive) | GI50 (T47D): > 100 µM (inactive) | GI50 (TK-10): > 100 µM (inactive) | GI50 (U-251): 33.2 µM (inactive) | GI50 (UACC-257): > 100 µM (inactive) | GI50 (UACC-62): > 100 µM (inactive) | GI50 (UO-31): > 100 µM (inactive)

COC1OC2COC1(OCc1ccccc1)C1OC(C)(C)OC21 (centres undefined)
GI50 (786-0): > 100 µM (inactive) | GI50 (A498): > 100 µM (inactive) | GI50 (A549): > 100 µM (inactive) | GI50 (ACHN): > 100 µM (inactive) | GI50 (BT-549): > 100 µM (inactive) | GI50 (CAKI-1): > 100 µM (inactive) | GI50 (CCRF-CEM): > 100 µM (inactive) | GI50 (COLO 205): > 100 µM (inactive) | GI50 (DU-145): > 100 µM (inactive) | GI50 (EKVX): > 100 µM (inactive) | GI50 (HCC 2998): > 100 µM (inactive) | GI50 (HCT-116): > 100 µM (inactive) | GI50 (HCT-15): > 100 µM | GI50 (HOP-62): > 100 µM (inactive) | GI50 (HT-29): > 100 µM (inactive) | GI50 (Hs-578T): > 100 µM (inactive) | GI50 (IGROV-1): > 100 µM (inactive) | GI50 (K562): > 100 µM (inactive) | GI50 (KM12): > 100 µM (inactive) | GI50 (M14): > 100 µM (inactive) | GI50 (MCF7): > 100 µM (inactive) | GI50 (MDA-MB-231): > 100 µM (inactive) | GI50 (MDA-MB-435): > 100 µM (inactive) | GI50 (MDA-N): > 100 µM (inactive) | GI50 (MOLT-4): > 100 µM (inactive) | GI50 (Malme-3M): > 100 µM (inactive) | GI50 (NCI-H226): > 100 µM (inactive) | GI50 (NCI-H23): > 100 µM (inactive) | GI50 (NCI-H460): > 100 µM (inactive) | GI50 (NCI-H522): > 100 µM (inactive) | GI50 (NCI/ADR-RES): > 100 µM (inactive) | GI50 (OVCAR-3): > 100 µM (inactive) | GI50 (OVCAR-4): > 100 µM (inactive) | GI50 (OVCAR-5): > 100 µM (inactive) | GI50 (OVCAR-8): > 100 µM (inactive) | GI50 (PC-3): > 100 µM (inactive) | GI50 (RPMI-8226): > 100 µM (inactive) | GI50 (RXF 393): > 100 µM (inactive) | GI50 (SF-268): > 100 µM (inactive) | GI50 (SF-295): > 100 µM (inactive) | GI50 (SK-MEL-28): > 100 µM (inactive) | GI50 (SK-MEL-2): > 100 µM (inactive) | GI50 (SK-MEL-5): > 100 µM (inactive) | GI50 (SK-OV-3): > 100 µM (inactive) | GI50 (SN12C): > 100 µM (inactive) | GI50 (SNB-19): > 100 µM (inactive) | GI50 (SNB-75): > 100 µM (inactive) | GI50 (SR): > 100 µM (inactive) | GI50 (SW-620): > 100 µM (inactive) | GI50 (T47D): > 100 µM (inactive) | GI50 (TK-10): > 100 µM (inactive) | GI50 (U-251): > 100 µM (inactive) | GI50 (UACC-257): > 100 µM (inactive) | GI50 (UACC-62): > 100 µM (inactive) | GI50 (UO-31): > 100 µM (inactive)

COc1ccc(/N=N/C(=O)NC(CC(C)C)C(=O)NC(C)C(=O)O)cc1 (centres undefined)
GI50 (786-0): > 100 µM (inactive) | GI50 (A498): > 100 µM (inactive) | GI50 (A549): 3.32 µM (inactive) | GI50 (ACHN): 1.53 µM (inactive) | GI50 (BT-549): 52.8 µM (inactive) | GI50 (CAKI-1): > 100 µM (inactive) | GI50 (CCRF-CEM): 6.28 µM (inactive) | GI50 (COLO 205): 3.2 µM (inactive) | GI50 (DU-145): 6.25 µM (inactive) | GI50 (EKVX): 30 µM (inactive) | GI50 (HCC 2998): 4.46 µM (inactive) | GI50 (HCT-116): > 34.4 µM (inactive) | GI50 (HCT-15): 1.3 µM | GI50 (HL-60): 6.22 µM (inactive) | GI50 (HOP-62): > 59.6 µM (inactive) | GI50 (HOP-92): > 100 µM (inactive) | GI50 (HT-29): > 40 µM (inactive) | GI50 (Hs-578T): > 79.3 µM (inactive) | GI50 (IGROV-1): 18.6 µM (inactive) | GI50 (K562): 1.54 µM (inactive) | GI50 (KM12): 29 µM (inactive) | GI50 (LOX IMVI): 4.68 µM (inactive) | GI50 (M14): 1.29 µM (inactive) | GI50 (MCF7): 27.5 µM (inactive) | GI50 (MDA-MB-231): > 23.4 µM (inactive) | GI50 (MDA-MB-435): 1.98 µM (inactive) | GI50 (MDA-N): 10.8 µM (inactive) | GI50 (MOLT-4): 4.22 µM (inactive) | GI50 (Malme-3M): 29.2 µM (inactive) | GI50 (NCI-H226): > 75.2 µM (inactive) | GI50 (NCI-H23): > 86.5 µM (inactive) | GI50 (NCI-H460): 9.66 µM (inactive) | GI50 (NCI/ADR-RES): > 67.9 µM (inactive) | GI50 (OVCAR-3): 28.8 µM (inactive) | GI50 (OVCAR-4): > 69.5 µM (inactive) | GI50 (OVCAR-5): > 100 µM (inactive) | GI50 (OVCAR-8): > 43.1 µM (inactive) | GI50 (PC-3): 4.72 µM (inactive) | GI50 (RPMI-8226): 20.8 µM (inactive) | GI50 (RXF 393): > 100 µM (inactive) | GI50 (SF-268): > 24.3 µM (inactive) | GI50 (SF-295): 9.82 µM (inactive) | GI50 (SF-539): 2.04 µM (inactive) | GI50 (SK-MEL-28): 17.1 µM (inactive) | GI50 (SK-MEL-2): > 35.8 µM (inactive) | GI50 (SK-MEL-5): 5.7 µM (inactive) | GI50 (SN12C): > 20.4 µM (inactive) | GI50 (SNB-19): > 100 µM (inactive) | GI50 (SNB-75): > 100 µM (inactive) | GI50 (SR): 12.7 µM (inactive) | GI50 (SW-620): 16.9 µM (inactive) | GI50 (T47D): 3.63 µM (inactive) | GI50 (TK-10): > 29.9 µM (inactive) | GI50 (U-251): > 100 µM (inactive) | GI50 (UACC-257): 23 µM (inactive) | GI50 (UACC-62): 0.968 µM (active) | GI50 (UO-31): 2.38 µM (inactive)
